Assay results reported in publication PMC10937419, “Exploring pyrrolidinyl-spirooxindole natural products as promising platforms for the synthesis of novel spirooxindoles as EGFR/CDK2 inhibitors for halting breast cancer cells” (Frontiers in Chemistry, 2024).

Key:
[1] = test system: CDK-2; parameters: method as in Al-Jassas, et al., 2023; settings: ref Al-Jassas, et al., 2023; read-out: CDK-2 inhibition; cited from earlier work
[2] = test system: HepG2; parameters: method as in Al-Jassas, et al., 2023; settings: ref Al-Jassas, et al., 2023; cited from earlier work
[3] = test system: EGFR; parameters: method as in Al-Jassas, et al., 2023; settings: ref Al-Jassas, et al., 2023; read-out: IC50 for EGFR inhibition; cited from earlier work
[4] = test system: MCF-7; parameters: method as in Al-Jassas, et al., 2023; settings: ref Al-Jassas, et al., 2023; cited from earlier work
[5] = test system: A549 cells; parameters: method as in Barakat, et al., 2023; settings: ref Barakat, et al., 2023, cited from earlier work
[6] = test system: WISH cells; assay: MTT cytotoxicity (safety) assay, normal WISH cells; format: cell-based; settings: mean ± SD of three independent trials
Protocol: The cytotoxicity of the synthesized compounds was tested using the MTT assay on breast cancer cells (MCF-7 and MDA-MB-231).
The methods for the Cytotoxic activity ([Mosmann, 1983]; [Nafie et al., 2020a]); EGFR/CDK-2 enzyme inhibition ([Nafie et al., 2022a]); Flow cytometry using Annexin V/PI staining; Gene expression analysis using RT-PCR ([Nafie et al., 2022b]); are amended in the Supplementary Material S1.
Both breast cancer; MCF-7 and MDA-MB-231 and normal (WISH) cells were purchased from the National Research Institute, Egypt, and maintained in RPMI-1640 medium L-Glutamine (Lonza Verviers SPRL, Belgium, cat#12-604F). All cells were incubated at 37 °C in 5% carbon dioxide atmosphere (NuAire). Cells were plated at a density of 5x10^4 cells in triplicates in a plate of 96 wells. On the second day, cells were treated with the compounds with concentrations of (0.01, 0.1, 1, 10, and 100 µM). Cell viability was assessed using the MTT assay [6].

[7] = test system: MCF-7 cells; assay: MTT cytotoxicity assay, MCF-7 breast cancer cells; format: cell-based; settings: Homo sapiens, MCF7; MTT assay; mean ± SD of three independent trials; read-out: IC50 ± SD, MCF-7
Protocol: (§1) All cells were incubated at 37 °C in 5% carbon dioxide atmosphere (NuAire). Cells were plated at a density of 5x10^4 cells in triplicates in a plate of 96 wells. On the second day, cells were treated with the compounds with concentrations of (0.01, 0.1, 1, 10, and 100 µM). Cell viability was assessed using the MTT assay [6].

[8] = molecular target: T1, CDK-2 kinase (Homo sapiens, UniProt P24941); assay: CDK-2 kinase inhibition assay (Kinase-Glo Plus); format: biochemical; settings: for CDK-2 kinase activity remaining (% of control): signal relative to control; for CDK-2 kinase activity remaining (% of control) / inhibition at 0.01 µM / inhibition at 0.1 µM / inhibition at 1 µM / inhibition at 2.5 µM / inhibition at 5 µM / inhibition at 10 µM: ΔT=30 min; for inhibition at 0.01 µM / inhibition at 0.1 µM / inhibition at 1 µM / inhibition at 2.5 µM / inhibition at 5 µM / inhibition at 10 µM: read-out: % of inhibition, CDK2; for IC50: average of three independent replicates
T1 construct: purchased not clearly printed (Promega, USA is printed after 'Kinase-Glo Plus'; #79599 is a BPS Bioscience number to my knowledge) 79599
Protocol: (§2) Inhibitory activities of 5g, 5l, and 5n were tested against EGFR and CDK-2.
(§3) Plus, Promega, USA) inhibition assay.

[9] = molecular target: T2, EGFR kinase (Homo sapiens, UniProt P00533); assay: EGFR kinase inhibition assay; format: biochemical; settings: for % remaining EGFR kinase activity (relative to control): signal relative to control; for % remaining EGFR kinase activity (relative to control) / inhibition at 0.01 µM / inhibition at 0.1 µM / inhibition at 1 µM / inhibition at 2.5 µM / inhibition at 5 µM / inhibition at 10 µM: ΔT=30 min; for IC50: average of three independent replicates; for % Of EGFR inhibition: concentration not given in Table 2, matches 10 µM in the 4th table
T2 construct: purchased BPS Bioscience Corporation 40321
T2 sequence (P00533 25-1210): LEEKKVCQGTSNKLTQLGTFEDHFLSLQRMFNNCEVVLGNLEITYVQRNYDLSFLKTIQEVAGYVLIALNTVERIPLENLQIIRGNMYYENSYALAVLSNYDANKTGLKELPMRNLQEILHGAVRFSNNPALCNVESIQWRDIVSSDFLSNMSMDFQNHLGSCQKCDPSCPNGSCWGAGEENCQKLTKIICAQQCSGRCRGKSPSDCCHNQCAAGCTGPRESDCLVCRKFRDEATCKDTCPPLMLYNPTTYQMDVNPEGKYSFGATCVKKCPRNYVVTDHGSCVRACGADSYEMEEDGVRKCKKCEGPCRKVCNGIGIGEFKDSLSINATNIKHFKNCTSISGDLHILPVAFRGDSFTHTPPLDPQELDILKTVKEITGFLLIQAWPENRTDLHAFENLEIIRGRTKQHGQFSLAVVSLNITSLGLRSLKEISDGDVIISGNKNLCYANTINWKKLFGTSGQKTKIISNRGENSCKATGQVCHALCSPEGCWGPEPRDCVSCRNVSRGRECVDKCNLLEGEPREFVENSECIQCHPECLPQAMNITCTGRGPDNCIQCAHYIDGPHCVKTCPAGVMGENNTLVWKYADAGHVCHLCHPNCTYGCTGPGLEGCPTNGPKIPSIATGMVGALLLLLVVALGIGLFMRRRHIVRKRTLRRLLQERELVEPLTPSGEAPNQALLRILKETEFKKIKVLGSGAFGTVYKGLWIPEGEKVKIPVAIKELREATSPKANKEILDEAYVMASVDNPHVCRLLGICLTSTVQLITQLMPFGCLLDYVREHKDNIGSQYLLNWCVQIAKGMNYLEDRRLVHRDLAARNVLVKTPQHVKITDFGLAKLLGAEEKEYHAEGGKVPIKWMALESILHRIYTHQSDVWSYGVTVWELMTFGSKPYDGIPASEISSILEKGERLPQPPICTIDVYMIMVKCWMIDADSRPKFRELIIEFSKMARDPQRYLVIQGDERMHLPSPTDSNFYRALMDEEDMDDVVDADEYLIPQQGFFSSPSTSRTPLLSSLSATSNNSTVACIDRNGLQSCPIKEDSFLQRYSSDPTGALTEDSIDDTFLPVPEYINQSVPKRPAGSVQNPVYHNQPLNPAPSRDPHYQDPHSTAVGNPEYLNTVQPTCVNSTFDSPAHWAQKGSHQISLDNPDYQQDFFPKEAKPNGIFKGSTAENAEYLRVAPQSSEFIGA
Protocol: as §2, §3

[10] = test system: MDA-MB-231 cells; assay: MTT cytotoxicity assay, MDA-MB-231 breast cancer cells; format: cell-based; settings: Homo sapiens, MDA-MB-231, MTT assay; mean ± SD of three independent trials; read-out: IC50 ± SD, MDA-MB-231
Protocol: as §1

[11] = test system: MCF-7 cells; assay: Annexin V/PI staining flow cytometry (apoptosis/necrosis); format: cell-based; settings: MCF-7, at the IC50 value, 48 h
Protocol: The apoptotic activity of compounds 5g was determined by flow cytometric analysis of Annexin V/PI staining of untreated and treated MCF-7 cells. […] Additionally, they induced necrotic cell death by 5.43% compared to 2.12% in the untreated control.
FIGURE 4 (A) Bar representation of the percentage of apoptosis (early and late apoptotic cell population) using Annexin V/Propidium Iodide staining.
MCF-7 cells were seeded into 6-well culture plates (3-5× 10^5 cells/well) and incubated overnight. […] Next, media supernatants and cells were collected and rinsed with ice-cold PBS. Then cells were suspended the cells in 100 µL of annexin binding buffer solution "25 mM CaCl2, 1.4 M NaCl, and 0.1 M Hepes/NaOH, pH 7.4” and incubation with “Annexin V-FITC solution (1:100) and propidium iodide (PI)” at a concentration equals 10 µg/mL in the dark for 30 min. Stained cells were then acquired by BD FACSCalibur™ Flow Cytometer.

[12] = test system: MCF-7 cells; assay: RT-PCR gene expression of apoptosis-related genes; format: cell-based; settings: MCF-7, at the IC50 value, 48 h
Source text: Both the untreated and treated MCF-7 cells were subjected to RT-PCR to confirm apoptotic cell death (Figure 5). […] These findings are in line with the possibility of triggering cell death by blocking enzymes. Activation of the intrinsic apoptotic pathway leads to mitochondrial potential loss and cytochrome c release. When the ratio of proteins that promote cell death to those that prevent it rises, a cascade reaction involving caspases 3 and 9 is set in motion, leading to cell death by caspase-dependent apoptosis.
“Values are expressed as Mean ± SD of three independent replicates”. “Data were normalized using β-actin as house-keeping gene. The dashed line represents the gene expression level of untreated control. Fold change was calculated using 2^^- ΔΔCT”.
Gene expression of Bcl-2, the anti-apoptotic gene, and the pro-apoptotic genes P53, Bax, and Caspapses-3,8,9 were examined to delve deeper into the apoptotic pathway. […] After treatment, RT-PCR reaction was carried out following routine work. Then, the Ct values were collected to calculate the relative genes’ expression in all samples by normalization to the β-actin housekeeping gene.

[13] = test system: MCF-7 cells; assay: Cell cycle analysis by flow cytometry; format: cell-based; settings: MCF-7, at the IC50 value, 48 h

O=C(c1ccc(Br)cc1)[C@H]1[C@H](c2cn(-c3ccccc3)nc2-c2ccccc2)C2CC3CCCCC3N2[C@]12C(=O)Nc1ccc(Cl)cc12 (stereo partly shown) [Compound II]
IC50 [1]: 0.035 µM | IC50 [2]: 1.04 ± 0.21 µM | IC50 [3]: 0.0966 µM | IC50 [4]: 0.189 ± 0.01 µM

O=C(c1nc2ccccc2[nH]1)[C@H]1[C@H](c2ccc(Cl)cc2Cl)C2CC3CCCCC3N2[C@@]12c1ccccc1-c1nc3ccccc3nc12 (stereo partly shown) [hit III]
selectivity index (SI) ([5]; A549 cells versus normal lung fibroblasts Wi-38): 6.64 | IC50 [5]: 0.054 µM

COC(=O)[C@H](C)NC(=O)CN1C(=O)S[C@@]2(C1=O)[C@@H](c1ccc(Cl)cc1)[C@H]1CSCN1[C@@]21C(=O)Nc2cc(Cl)ccc21 [Compound 5n, Methyl (2-((3S,6′S,7′S,7a′S)-6-chloro-7'-(4-chlorophenyl)-2,2″,4″-trioxo-7′,7a′-dihydro-1′H,3′H-dispiro [indoline-3,5′-pyrrolo [1,2-c]thiazole-6′,5″-thiazolidin]-3″-yl)acetyl)alaninate]
IC50 [6]: 47.2 ± 2.1 µM | IC50 [7]: 3.9 ± 0.3 µM | CDK-2 kinase activity remaining (% of control) ([8]; 0.01 µM): 91.05% | inhibition at 0.01 µM ([8]; 0.01 µM): 8.95% | CDK-2 kinase activity remaining (% of control) ([8]; 0.1 µM): 74.4404% | inhibition at 0.1 µM ([8]; 0.1 µM): 25.6% | CDK-2 kinase activity remaining (% of control) ([8]; 1 µM): 63.25% | inhibition at 1 µM ([8]; 1 µM): 36.8% | CDK-2 kinase activity remaining (% of control) ([8]; 2.5 µM): 61.79% | inhibition at 2.5 µM ([8]; 2.5 µM): 38.2% | CDK-2 kinase activity remaining (% of control) ([8]; 5 µM): 47.27% | inhibition at 5 µM ([8]; 5 µM): 52.7% | CDK-2 kinase activity remaining (% of control) ([8]; 10 µM): 42.84% | inhibition at 10 µM ([8]; 10 µM): 88.7% | IC50 [8]: 0.557 µM | % Of CDK-2 inhibition ([8]; concentration not given in Table 2, matches 10 µM in the 5th table): 88.7% | % remaining EGFR kinase activity (relative to control) ([9]; 0.01 µM): 71.48% | inhibition at 0.01 µM ([9]; 0.01 µM): 28.5% | % remaining EGFR kinase activity (relative to control) ([9]; 0.1 µM): 59.63% | inhibition at 0.1 µM ([9]; 0.1 µM): 40.4% | % remaining EGFR kinase activity (relative to control) ([9]; 1 µM): 36.13% | inhibition at 1 µM ([9]; 1 µM): 63.9% | % remaining EGFR kinase activity (relative to control) ([9]; 2.5 µM): 37.42% | inhibition at 2.5 µM ([9]; 2.5 µM): 62.6% | % remaining EGFR kinase activity (relative to control) ([9]; 5 µM): 30.59% | inhibition at 5 µM ([9]; 5 µM): 69.4% | % remaining EGFR kinase activity (relative to control) ([9]; 10 µM): 8.54% | inhibition at 10 µM ([9]; 10 µM): 91.2% | IC50 [9]: 0.04 ± 0.001 µM | % Of EGFR inhibition [9]: 91.2 ± 2.1% | IC50 [10]: 5.3 ± 0.4 µM

O=C(O)CN1C(=O)S[C@@]2(C1=O)[C@@H](c1ccc(Cl)cc1)[C@H]1CSCN1[C@@]21C(=O)Nc2ccc(Br)cc21 [Compound 5g, 2-((3S,6′S,7′S,7a′S)-5-bromo-7'-(4-chlorophenyl)-2,2″,4″-trioxo-7′,7a′-dihydro-1′H,3′H-dispiro [indoline-3,5′-pyrrolo [1,2-c]thiazole-6′,5″-thiazolidin]-3″-yl)acetic acid]
early apoptosis [11]: 21.87% | late apoptosis [11]: 10.15% | necrotic cell death ([11]; untreated control 2.12%): 5.43% | IC50 [6]: 39.3 ± 1.8 µM | IC50 [7]: 2.8 ± 0.4 µM | Bcl-2 gene expression fold change ([12]; anti-apoptotic gene, downregulated): 0.39 fold | Bax gene expression fold change ([12]; normalized to β-actin, 2^-ΔΔCT): 6.26 fold | P53 gene expression fold change ([12]; normalized to β-actin, 2^-ΔΔCT): 4.1 fold | caspase 3 gene expression fold change ([12]; normalized to β-actin, 2^-ΔΔCT): 9.2 fold | caspase 8 gene expression fold change ([12]; normalized to β-actin, 2^-ΔΔCT): 1.7 fold | caspase 9 gene expression fold change ([12]; normalized to β-actin, 2^-ΔΔCT): 6.13 fold | CDK-2 kinase activity remaining (% of control) ([8]; 0.01 µM): 90.11% | inhibition at 0.01 µM ([8]; 0.01 µM): 9.89% | CDK-2 kinase activity remaining (% of control) ([8]; 0.1 µM): 78.5% | inhibition at 0.1 µM ([8]; 0.1 µM): 21.5% | CDK-2 kinase activity remaining (% of control) ([8]; 1 µM): 64.55% | inhibition at 1 µM ([8]; 1 µM): 35.5% | CDK-2 kinase activity remaining (% of control) ([8]; 2.5 µM): 60.7% | inhibition at 2.5 µM ([8]; 2.5 µM): 39.3% | CDK-2 kinase activity remaining (% of control) ([8]; 5 µM): 33.99% | inhibition at 5 µM ([8]; 5 µM): 66% | CDK-2 kinase activity remaining (% of control) ([8]; 10 µM): 27.2254% | inhibition at 10 µM ([8]; 10 µM): 91.9% | IC50 [8]: 0.301 µM | % remaining EGFR kinase activity (relative to control) ([9]; 0.01 µM): 90.58% | inhibition at 0.01 µM ([9]; 0.01 µM): 9.42% | % remaining EGFR kinase activity (relative to control) ([9]; 0.1 µM): 69.72% | inhibition at 0.1 µM ([9]; 0.1 µM): 30.3% | % remaining EGFR kinase activity (relative to control) ([9]; 1 µM): 40.27% | inhibition at 1 µM ([9]; 1 µM): 59.7% | % remaining EGFR kinase activity (relative to control) ([9]; 2.5 µM): 33.39% | inhibition at 2.5 µM ([9]; 2.5 µM): 66.6% | % remaining EGFR kinase activity (relative to control) ([9]; 5 µM): 31.63% | inhibition at 5 µM ([9]; 5 µM): 68.4% | % remaining EGFR kinase activity (relative to control) ([9]; 10 µM): 7.867% | inhibition at 10 µM ([9]; 10 µM): 92.6% | IC50 [9]: 0.026 ± 0.006 µM | % Of EGFR inhibition [9]: 92.6 ± 1.9% | IC50 [10]: 23.5 ± 0.9 µM | cell population in the G0-G1-phase ([13]; control 31%): 39.8% | cell population in the S-phase ([13]; control 32.1%): 45.2% | cells population at G2/M phase ([13]; versus untreated control): decreased
